The record followed here is patent US12673933B2, “Aminopyrazine compounds as HPK1 inhibitor and the use thereof” (BEIGENE, LTD., priority 2019, dated 2026).

The assay concerns the target T1, HPK1 kinase (aa1-346, Life Technologies) (Homo sapiens, UniProt Q92918).
T1 construct: HPK1 kinase (aa1-346, Life Technologies); purchased Life Technologies
T1 sequence (Q92918 1-346): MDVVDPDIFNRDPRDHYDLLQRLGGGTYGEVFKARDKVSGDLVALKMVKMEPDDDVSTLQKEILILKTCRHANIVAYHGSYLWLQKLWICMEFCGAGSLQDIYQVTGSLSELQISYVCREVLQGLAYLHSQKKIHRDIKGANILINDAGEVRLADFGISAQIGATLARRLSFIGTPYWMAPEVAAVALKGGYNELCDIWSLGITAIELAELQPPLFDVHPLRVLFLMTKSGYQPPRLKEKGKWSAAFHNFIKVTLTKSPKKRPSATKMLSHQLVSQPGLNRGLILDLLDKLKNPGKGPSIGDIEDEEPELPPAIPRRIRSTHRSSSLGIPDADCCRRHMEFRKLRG
Briefly: HPK Kinase Activity Assay at 1 mM ATP (TR-FRET). The assay is classed as biochemical. The note with it: HPK1 kinase 40 nM, 0.5 μM STK1 substrate, read-out: Enzymatic activity IC50. The method, boiled down:
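HPK1 (aa1-346, 40 nM) was preincubated 60 min at room temperature with compound (0–10 μM) in pH 7.0 HEPES/MgCl2 buffer. Reaction ran 120 min at room temperature with 1 mM ATP and 0.5 μM STK1 substrate. Phosphorylation was read as the TR-FRET 665/620 nm ratio, with IC50 from a four-parameter logistic fit.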
Turning to `Cc1cc(-c2cnc(N)c(C(=O)Nc3ccncc3)n2)cc2c1CCN(C)C2` [Example 287, 3-amino-6-(2,5-dimethyl-1,2,3,4-tetrahydroisoquinolin-7-yl)-N-(pyridin-4-yl)pyrazine-2-carboxamide], the IC50 stood at 25 nM.

As to `Cc1cc(-c2cnc(N)c(Oc3cnn(C(C)c4cccnc4)c3)n2)cc2c1CCN(C)C2` (stereo not drawn) [Example 288, 5-(2,5-dimethyl-1,2,3,4-tetrahydroisoquinolin-7-yl)-3-(1-(1-(pyridin-3-yl)ethyl)-1H-pyrazol-4-yloxy)pyrazin-2-amine], the IC50 was 17 nM.

With `CNc1cc(-c2cnc(N)c(-n3cc(C(=O)N(C)C)cn3)n2)cc2c1CCN(C)C2` [Example 289, 1-(3-amino-6-(2-methyl-5-(methylamino)-1,2,3,4-tetrahydroisoquinolin-7-yl)pyrazin-2-yl)-N,N-dimethyl-1H-pyrazole-4-carboxamide], the IC50 was found to be 9.7 nM.

For the compound `CN1CCc2c(cc(-c3cnc(N)c(-n4cc(C(=O)N(C)C)cn4)n3)cc2NC2CC2)C1` [Example 290, 1-(3-amino-6-(5-(cyclopropylamino)-2-methyl-1,2,3,4-tetrahydroisoquinolin-7-yl)pyrazin-2-yl)-N,N-dimethyl-1H-pyrazole-4-carboxamide], the IC50 turned out to be 16 nM. For `CCOCCN(C)C(=O)c1cnn(-c2nc(-c3cc(C)c4c(c3)CN(C)CC4)cnc2N)c1` [Example 292, 1-(3-amino-6-(2,5-dimethyl-1,2,3,4-tetrahydroisoquinolin-7-yl)pyrazin-2-yl)-N-(2-ethoxyethyl)-N-methyl-1H-pyrazole-4-carboxamide], the IC50 was 5.3 nM. For `Cc1cc(-c2cnc(N)c(Oc3cnn(CC4CCOCC4)c3)n2)cc2c1CCN(C)C2` [Example 293, 5-(2,5-dimethyl-1,2,3,4-tetrahydroisoquinolin-7-yl)-3-(1-((tetrahydro-2H-pyran-4-yl)methyl)-1H-pyrazol-4-yloxy)pyrazin-2-amine], the IC50 came out at 37 nM. Turning to `CCS(=O)(=O)N1CC(n2cc(Oc3nc(-c4cc(C)c5c(c4)CN(C)CC5)cnc3N)cn2)C1` [Example 295, 5-(2,5-dimethyl-1,2,3,4-tetrahydroisoquinolin-7-yl)-3-(1-(1-(ethylsulfonyl)azetidin-3-yl)-1H-pyrazol-4-yloxy)pyrazin-2-amine], the IC50 was 36 nM. Take `Cc1cc(-c2cnc(N)c(Oc3cnn(C4CN(S(=O)(=O)c5ccccc5)C4)c3)n2)cc2c1CCN(C)C2` [Example 296, 5-(2,5-dimethyl-1,2,3,4-tetrahydroisoquinolin-7-yl)-3-(1-(1-(phenylsulfonyl)azetidin-3-yl)-1H-pyrazol-4-yloxy)pyrazin-2-amine]: the IC50 came to 67 nM.

Take `Cc1cc(-c2cnc(N)c(-n3cc(C(=O)NCC4CC4)cn3)n2)cc2c1CCN(C)C2` [Example 297, 1-(3-amino-6-(2,5-dimethyl-1,2,3,4-tetrahydroisoquinolin-7-yl)pyrazin-2-yl)-N-(cyclopropylmethyl)-1H-pyrazole-4-carboxamide]: the 50% inhibitory concentration (IC50) was found to be 6.6 nM.

On to `Cc1cc(-c2cnc(N)c(-n3cc(C(=O)NC4CC4)cn3)n2)cc2c1CCN(C)C2` [Example 298, 1-(3-amino-6-(2,5-dimethyl-1,2,3,4-tetrahydroisoquinolin-7-yl)pyrazin-2-yl)-N-cyclopropyl-1H-pyrazole-4-carboxamide], for which the IC50 worked out at 4.2 nM.

Turning to `Cc1cc(-c2cnc(N)c(-n3cc(C(=O)NCCN4CCOCC4)cn3)n2)cc2c1CCN(C)C2` [Example 299, 1-(3-amino-6-(2,5-dimethyl-1,2,3,4-tetrahydroisoquinolin-7-yl)pyrazin-2-yl)-N-(2-morpholinoethyl)-1H-pyrazole-4-carboxamide], the 50% inhibitory concentration (IC50) was 8.9 nM. `Cc1cc(-c2cnc(N)c(-n3cc(C(=O)NCc4ccc(F)cc4Cl)cn3)n2)cc2c1CCN(C)C2` [Example 300, 1-(3-amino-6-(2,5-dimethyl-1,2,3,4-tetrahydroisoquinolin-7-yl)pyrazin-2-yl)-N-(2-chloro-4-fluorobenzyl)-1H-pyrazole-4-carboxamide]: the half-inhibitory concentration (IC50) worked out at 7.5 nM.
